Laboratory results from US12319709B2, “Diaryl trehalose compounds and uses thereof” (THE UNIVERSITY OF MONTANA, priority 2018, dated 2025).

Key:
[1] = test system: peripheral blood mononuclear cells (PBMCs); assay: Cytokine analysis of supernatants of stimulated, freshly prepared PBMCs; type: cell-based, human; conditions: compounds solubilized in DMSO
Procedure: Tumor necrosis factor alpha (TNFα) and IL-6 production in peripheral blood mononuclear cells (PBMCs) was measured after exposure to various concentrations of the DAT compounds synthesized as shown above. Initial studies focused on two different methods of delivery of the DAT compounds to PBMC cultures. In the first delivery method, the indicated derivative compound was dissolved in isopropanol, serially diluted, and then dried to the bottom of a tissue culture plate. In the second delivery method, the indicated derivative compound was dissolved in DMSO and serially diluted into tissue culture media. In each method, PBMCs were added to the compounds and incubated at 37° C. TNFα (FIG. 1A) and IL-6 (FIG. 1B) were measured after 18-24 hours after treatment by ELISA assay.
Supernatants from the freshly prepared PBMCs stimulated with DAT compounds solubilized in DMSO (Example 5A) were analyzed for the cytokines that help drive Th1 cell or Th17 cell adaptive immune responses; IFNγ, IL-12 p70, IL-6, IL-1β, and IL-23. Minimal amounts of IL-12p70 were detected and IFNγ was undetectable. Therefore, both are not reported.

Mincle receptor = molecular target: T1, Mincle receptor (Mus musculus, UniProt Q9R0Q8); assay: HEK-Blue Mincle mouse reporter cells, NF-κB SEAP production; type: cell-based
T1 construct: expressed in transfected cells; host or cells: HEK-Blue Mincle reporter cells (HEK293-derived, NF-kB SEAP reporter)
T1 sequence (Q9R0Q8 1-214): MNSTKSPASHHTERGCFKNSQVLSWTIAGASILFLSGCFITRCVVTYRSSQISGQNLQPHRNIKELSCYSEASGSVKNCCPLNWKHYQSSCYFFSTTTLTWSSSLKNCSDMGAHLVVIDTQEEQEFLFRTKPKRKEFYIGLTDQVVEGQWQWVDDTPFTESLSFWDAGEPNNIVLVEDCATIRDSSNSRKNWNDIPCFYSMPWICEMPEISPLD
Procedure: Compounds were also tested in the commercial reporter Hek-Blue™ cell lines. Hek-Blue™ cells were treated with increasing concentrations of the indicated compound for 18 to 24 hours. Isolated supernatants were measured for NF-κB secreted embryonic alkaline phosphatase (SEAP) production with QUANTI-Blue™ reagent (FIG. 4A). SEAP production was robust for both the mouse and human reporter lines (FIG. 4A), indicating strong signaling through the Mincle receptor in both human and murine systems.

RAW264.7 cells = assay: Cytokine (TNFα) response of mouse macrophage cell line; Table 2 'Murine'; type: cell-based; conditions: NR = no response
Procedure: Compounds were also tested in a mouse macrophage cell line (FIG. 4B). RAW264.7 cells were subjected to increasing concentrations of the compounds and assessed for production of the cytokine TNFα.

Balb/c mice = assay: i.m. immunization of Balb/c mice with M72 antigen and liposomal adjuvant; splenocyte restimulation, intracellular cytokine staining; type: in vivo, mouse
[2] = test system: peripheral blood mononuclear cells (PBMCs); assay: IL-6 induction in fresh human PBMCs; type: cell-based
Procedure, shortened: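 Fresh human PBMCs incubated at 37 °C with serially diluted compounds delivered in DMSO into medium. IL-6 in supernatants quantified by ELISA 18 h after treatment.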

With `CC(C)(C)c1cc(C(=O)OCC2OC(OC3OC(COC(=O)c4cc(C(C)(C)C)cc(C(C)(C)C)c4O)C(O)C(O)C3O)C(O)C(O)C2O)c(O)c(C(C)(C)C)c1` (stereo not drawn) [UM1024, 6,6′-bis-(3,5-di-tert-butylsalisate)-α,α-trehalose] the “TNFα response in PBMCs (in words)” value [1] was “higher responding”, the “NF-κB SEAP production, mouse reporter line” value (Mincle receptor; 18 to 24 hours, QUANTI-Blue) was “distinct very high peak at low concentration of compound” and the “potency shift in comparison with other compounds, reporter cells” value (Mincle receptor; HEK-Blue Mincle reporter, compared with PBMC cytokine profiles) was “did not display a large leftward potency shift”. For the same compound, the “Maximum cytokine response Murine” value (RAW264.7 cells) was 3, the “Minimal Effective Concentration Murine” value (RAW264.7 cells) was 0.45 µM and the “IL-2 production compared to controls” value (Balb/c mice; 10 nmol group) was “substantially increased”. For the same compound, the “TNFα production compared to controls” value (Balb/c mice; higher doses) was “increased compared to controls”, the “antigen-specific CD4+ and CD8+ IL-17A producing cells (Th17 response)” value (Balb/c mice; liposomal formulation, M72 restimulated splenocytes, TDB at highest dose) was “induced high levels of antigen-specific CD4+ and CD8+ IL17A producing cells” and the “IL-5 production (Th2 response) in restimulated cells” value (Balb/c mice; liposomal formulation, M72 vaccine) was “seen in restimulated cells”. The “Maximum cytokine response h-IL-6” value ([2]; human IL-6, NR = no response) was 3.5 OD, the “Minimal Effective Concentration h-IL-6” value ([2]; human IL-6, NR = no response) was 1 µM and the “increased potency (EC50) for induction of cytokines relative to other compounds” value ([2]; human PBMCs) was “over 1000 ×”.
